Laboratory results reported in US20080274882A1, “Insecticides Based on Selected Neonicotinoids and Strobilurins” (Bayer CropScience AG, priority 2004, published 2008).

How the values were obtained:
[1] = test system: Myzus persicae; assay: Myzus persicae test (cabbage leaf dip); type: in vivo; settings: for Kill in % after 1 day: Table A1; for Kill in % after 6 days: Table A2
[2] = test system: Phaedon cochleariae larvae; assay: Phaedon cochleariae larvae test (cabbage leaf dip)

CN/C(=N\[N+](=O)[O-])NCc1cnc(Cl)s1 [clothianidin]
Kill in % after 1 day ([1]; 0.8 ppm): 40%
Kill in % after 6 days ([1]; 0.8 ppm): 30%
Kill in % after 6^d ([2]; 4 ppm, Table B1): 20%
Kill in % after 6^d ([2]; 4 ppm, Table B2): 60%

CNC(=O)/C(=N/OC)c1ccccc1COc1cc(C)ccc1C [dimoxystrobin]
Kill in % after 6^d ([2]; 20 ppm, Table B2): 0%

CO/C=C(/C(=O)OC)c1ccccc1COc1cccc(C(F)(F)F)n1 [picoxystrobin]
Kill in % after 1 day ([1]; 100 ppm): 0%
Kill in % after 6^d ([2]; 100 ppm, Table B1): 0%

pyraclostrobin
Kill in % after 6 days ([1]; 100 ppm): 35%
